Data published in patent US5326766A, “4-(2-(4-(2-pyridinyloxy)phenyl)ethoxy)quinazoline and analogues thereof” (priority 1992, dated 1994).

Experiments:
[1] = tested on: cotton aphid (Aphis gossypii); assay: whole plant or invertebrate; conditions: 72 h; for mortality at 400 ppm: read-out: CA activity (percent based on aphids present in plants sprayed with solvent alone), 400 ppm, squash plants, three days after treatment; for mortality at 50 ppm: read-out: CA activity (percent based on aphids present in plants sprayed with solvent alone), 50 ppm, squash plants, three days after treatment
[2] = tested on: Puccinia recondita tritici (leaf rust); assay: Foliar spray fungicide test, Puccinia recondita tritici (leaf rust) on wheat; conditions: Puccinia recondita, in Triticum aestivum, foliar, read-out: PUCCRT disease control, host wheat, 400 ppm (+++: 100 ppm)
Description: (§3) The test compounds were formulated for application by dissolving 50 mg of the compound into 1.25 ml of solvent. The solvent was prepared by mixing 50 ml of "Tween 20" (polyoxyethylene (20) sorbitan monolaurate emulsifier) with 475 ml of acetone and 475 ml of ethanol. The solvent/compound solution was diluted to 125 ml with deionized water. The resulting formulation contains 400 ppm test chemical. Lower concentrations were obtained by serial dilution with the solvent-surfactant mixture.
(§4) The formulated test compounds were applied by foliar spray. The following plant pathogens and their corresponding plants were employed.
Puccinia recondita PUCCRT wheat
(§5) The formulated technical compounds were sprayed on all foliar surfaces of the host plants to past run-off. Single pots of each host plant were placed on raised, revolving pedestals in a fume hood. Test solutions were sprayed on all foliar surfaces. All treatments were allowed to dry and the plants were inoculated with the appropriate pathogens within 24 hours.
(§6) The effectiveness of test compounds in controlling disease was rated using the following scale.

[3] = tested on: aster leafhopper (Macrosteles fascifrons); assay: whole plant or invertebrate; assay type: in vivo; conditions: Macrosteles fascifrons, 24 h, read-out: ALH percent mortality
Description: (§1) The compounds identified in Table I were tested for miticidal and insecticidal activity against eight species. The following abbreviations are used in the Table III:
ALH refers to aster leafhopper
(§2) In conducting evaluations of insecticidal activity, each test compound was formulated as a 400 ppm solution, and this solution was then diluted with water to give lesser concentrations. The 400 ppm solution was prepared by combining 19.2 mL of 0.05% solution of Tween 20 (polyoxyethylene (20) sorbitan monolaurate) in water with a solution of 8 mg of the compound in 0.8 mL of acetone/EtOH (9/1).
Activity against aster leafhopper (Macrosteles fascifrons) was tested as follows. The test was run using concentrations of 400 ppm and 50 ppm. One ounce plastic cups containing a cotton wick was sprayed with 0.4 mL of formulated material using a flat-fan nozzle. The excess moisture was allowed to evaporate. Then five to ten carbon dioxide anesthetized adult leafhoppers were added to each cup. The cups were capped and held at room temperature for 24 hours. Percent mortality was then determined.

[4] = tested on: German cockroach (Blattella germanicus); assay: whole plant or invertebrate; assay type: in vivo; conditions: 240 h, ten days, read-out: GECR activity (rated on live and dead insects)
Description: as §1
GECR refers to German cockroach
as §2
Activity against German cockroach (Blattella germanicus) was evaluated as follows. 8 mL of alfalfa based green insect diet material was dispensed into a one ounce diet cup. The cups were then sprayed with formulated material through a flat-fan nozzle. The test was run using concentrations of 400 ppm and 50 ppm. Treated cups were air dried for 24 hours and infested with five late third or early fourth instar German cockroaches. The cups were capped and held for ten days in an environmental growth chamber at a temperature of […]. Activity was then rated based on the total number of live and dead insects.

[5] = tested on: Erysiphe graminis tritici (powdery mildew); assay: Foliar spray fungicide test, Erysiphe graminis tritici (powdery mildew) on wheat; conditions: Blumeria graminis, in Triticum aestivum, foliar, read-out: ERYSGT disease control, host wheat, 400 ppm (+++: 100 ppm)
Description: as §3, §4, §5, §6

[6] = tested on: two spotted spider mite (Tetranychus urticae); assay: whole plant or invertebrate; conditions: 72 h; for mortality at 400 ppm: read-out: TSSM activity (percent based on mites present in plants sprayed with solvent alone), 400 ppm, squash plants, three days after treatment; for mortality at 50 ppm: read-out: TSSM activity (percent based on mites present in plants sprayed with solvent alone), 50 ppm, squash plants, three days after treatment
[7] = tested on: Southern corn rootworm (Diabrotica undecimpuctata howardi Barber); assay: whole plant or invertebrate; assay type: in vivo; conditions: 400 ppm, soil concentration of 24 ppm, 3-4 days, read-out: SCRW mortality
Description: as §1
SCRW refers to southern corn rootworm
as §2
Activity on Southern corn rootworm (Diabrotica undecimpuctata howardi Barber) was evaluated by adding one mL of test solution containing a predetermined concentration of test compound to a cup containing a kernel of corn in 16 g of sterile soil. This produces a soil concentration of 24 ppm. After 1.5 to 2 hours of drying, five 4th instar corn rootworm larvae were added to the individual cups. Mortality was measured at 3-4 days by emptying the cup onto a pan and inspecting the soil for live rootworms.

[8] = tested on: beet armyworm (Spodoptera exiqua); assay: Activity against beet armyworm; assay type: in vivo; conditions: Spodoptera, 144 h, 6 days, read-out: BAW activity (rated on live and dead larvae and size of live larvae)
Description: as §1
BAW refers to beet armyworm
as §2
Activity against beet armyworm (Spodoptera exiqua) was evaluated as follows. The test is run using concentrations of 400 ppm and 50 ppm. A general purpose lepidoptera artificial diet was diluted to half strength with a 5% non nutritive agar. 8 mL of this diet material was dispensed into one ounce diet cups. One hour prior to treatment, 35 to 40 eggs were dispensed onto the diet surface. The cups were then sprayed with formulated material through a flat-fan nozzle. Treated cups were air dried prior to sealing with plastic caps. The cups were held for 6 days at room temperature. Activity was then rated based on the total number of live and dead larvae, and on the size of live larvae.

[9] = tested on: Leptosphaeria nodorum (glume blotch); assay: Foliar spray fungicide test, Leptosphaeria nodorum (glume blotch) on wheat; conditions: Parastagonospora nodorum, in Triticum aestivum, foliar, read-out: LETPNO disease control, host wheat, 400 ppm (+++: 100 ppm)
Description: as §3
The formulated test compounds were applied by foliar spray.
as §5, §6

[10] = tested on: Plasmopara viticola (downy mildew); assay: Foliar spray fungicide test, Plasmopara viticola (downy mildew) on grape; conditions: Plasmopara viticola, foliar, read-out: PLASVI disease control
[11] = tested on: tobacco budworm (Heliothis virescens); assay: Activity against tobacco budworm; assay type: in vivo; conditions: Heliothis virescens, 144 h, 6 days, read-out: TBW activity (rated on live and dead larvae and size of live larvae)
Description: as §1
TBW refers to tobacco budworm
as §2
Activity against tobacco budworm (Heliothis virescens) was evaluated as follows. A general purpose lepidoptera artificial diet was diluted to half strength with a 5% non nutritive agar. 8 mL of this diet material was dispensed into each one ounce diet cup. One hour prior to treatment 18 to 20 eggs were dispensed onto the diet surface. The cups were then sprayed with formulated material through a flat-fan nozzle. The test was run using concentrations of 400 ppm and 50 ppm. Treated cups were air dried prior to sealing with plastic caps. The cups were held for 6 days at room temperature. Activity was then rated based on the total number of live and dead larvae, and on the size of live larvae.

[12] = tested on: Pyricularia oryzae (rice blast); assay: whole plant or invertebrate; assay type: in vivo; conditions: Pyricularia oryzae, foliar, read-out: PYRIOR disease control, host rice; foliar spray; 400 ppm (+++: 100 ppm)

Fc1cc(C(F)(F)F)cnc1Oc1ccc(CCOc2ncnc3c(F)cccc23)cc1 [Compound 5]
mortality at 400 ppm [1]: 100%
pest or weed control at 400 µg/mL [2]: 90 to 100%
mortality at 400 ppm [3]: 100%
mortality at 400 ppm [4]: 100%
pest or weed control at 400 µg/mL [5]: 90 to 100%
mortality at 400 ppm [6]: 100%
mortality at 24 ppm [7]: 100%
pest or weed control at 400 ppm [8]: 100%
pest or weed control at 400 µg/mL [9]: 0 to 19%
pest or weed control at 400 µg/mL [10]: 90 to 100%
pest or weed control at 400 ppm [11]: 100%
pest or weed control at 400 µg/mL [12]: 90 to 100%

Fc1cccc2c(OCCc3ccc(Oc4cc(C(Cl)(Cl)Cl)cc(Cl)n4)cc3)ncnc12 [Compound 34]
mortality at 50 ppm [1]: 0%
mortality at 400 ppm [1]: 0%
pest or weed control at 400 µg/mL [2]: 20 to 89%
mortality at 50 ppm [3]: 40%
mortality at 400 ppm [3]: 20%
mortality at 50 ppm [4]: 0%
mortality at 400 ppm [4]: 0%
pest or weed control at 400 µg/mL [5]: 0 to 19%
mortality at 50 ppm [6]: 0%
mortality at 400 ppm [6]: 0%
mortality at 24 ppm [7]: 0%
pest or weed control at 50 ppm [8]: 0%
pest or weed control at 400 ppm [8]: 100%
pest or weed control at 400 µg/mL [9]: 0 to 19%
pest or weed control at 400 µg/mL [10]: 0 to 19%
pest or weed control at 50 ppm [11]: 0%
pest or weed control at 400 ppm [11]: 80%
pest or weed control at 400 µg/mL [12]: 20 to 89%

c1cnc(Oc2ccc(CCOc3ncnc4ccccc34)cc2)nc1 [Compound 45]
mortality at 50 ppm [1]: 100%
mortality at 400 ppm [1]: 100%
pest or weed control at 400 µg/mL [2]: 90 to 100%
mortality at 50 ppm [3]: 60%
mortality at 400 ppm [3]: 40%
mortality at 50 ppm [4]: 0%
mortality at 400 ppm [4]: 20%
pest or weed control at 400 µg/mL [5]: 90 to 100%
mortality at 50 ppm [6]: 40%
mortality at 400 ppm [6]: 60%
mortality at 24 ppm [7]: 0%
pest or weed control at 50 ppm [8]: 100%
pest or weed control at 400 ppm [8]: 100%
pest or weed control at 400 µg/mL [9]: 0 to 19%
pest or weed control at 400 µg/mL [10]: 90 to 100%
pest or weed control at 50 ppm [11]: 100%
pest or weed control at 400 ppm [11]: 100%
pest or weed control at 400 µg/mL [12]: 90 to 100%

Fc1cccc2c(OCCc3ccc(Oc4cc(C(F)(F)F)ccn4)cc3)ncnc12 [Compound 12]
mortality at 50 ppm [1]: 100%
mortality at 400 ppm [1]: 100%
pest or weed control at 400 µg/mL [2]: 90 to 100%
mortality at 50 ppm [3]: 80%
mortality at 400 ppm [3]: 100%
mortality at 50 ppm [4]: 0%
mortality at 400 ppm [4]: 60%
pest or weed control at 400 µg/mL [5]: 90 to 100%
mortality at 50 ppm [6]: 90%
mortality at 400 ppm [6]: 100%
mortality at 24 ppm [7]: 0%
pest or weed control at 50 ppm [8]: 100%
pest or weed control at 400 ppm [8]: 100%
pest or weed control at 400 µg/mL [9]: 20 to 89%
pest or weed control at 400 µg/mL [10]: 90 to 100%
pest or weed control at 50 ppm [11]: 70%
pest or weed control at 400 ppm [11]: 100%
pest or weed control at 400 µg/mL [12]: 90 to 100%

N#Cc1ccc(Oc2ccc(CCOc3ncnc4c(F)cccc34)cc2)nc1 [Compound 20]
mortality at 400 ppm [1]: 0%
pest or weed control at 400 µg/mL [2]: 90 to 100%
mortality at 400 ppm [3]: 0%
mortality at 400 ppm [4]: 0%
pest or weed control at 400 µg/mL [5]: 90 to 100%
mortality at 400 ppm [6]: 0%
mortality at 24 ppm [7]: 0%
pest or weed control at 400 ppm [8]: 0%
pest or weed control at 400 µg/mL [9]: 20 to 89%
pest or weed control at 400 µg/mL [10]: 90 to 100%
pest or weed control at 400 ppm [11]: 0%
pest or weed control at 400 µg/mL [12]: 90 to 100%

Fc1cccc2c(NCCc3ccc(Oc4ncc(C(F)(F)F)cc4Cl)cc3)ncnc12 [Compound 1]
mortality at 50 ppm [1]: 0%
mortality at 400 ppm [1]: 0%
pest or weed control at 400 µg/mL [2]: 90 to 100%
mortality at 50 ppm [3]: 100%
mortality at 400 ppm [3]: 100%
mortality at 50 ppm [4]: 0%
mortality at 400 ppm [4]: 20%
pest or weed control at 400 µg/mL [5]: 90 to 100%
mortality at 50 ppm [6]: 0%
mortality at 400 ppm [6]: 0%
mortality at 24 ppm [7]: 80%
pest or weed control at 50 ppm [8]: 100%
pest or weed control at 400 ppm [8]: 100%
pest or weed control at 400 µg/mL [9]: 90 to 100%
pest or weed control at 400 µg/mL [10]: 90 to 100%
pest or weed control at 50 ppm [11]: 100%
pest or weed control at 400 ppm [11]: 0%
pest or weed control at 400 µg/mL [12]: 90 to 100%

Fc1cccc2c(OCCc3ccc(Oc4ccc(C(Cl)(Cl)Cl)cn4)cc3)ncnc12 [Compound 25]
mortality at 400 ppm [1]: 85%
pest or weed control at 400 µg/mL [2]: 90 to 100%
mortality at 400 ppm [3]: 0%
mortality at 400 ppm [4]: 0%
pest or weed control at 400 µg/mL [5]: 20 to 89%
mortality at 400 ppm [6]: 90%
mortality at 24 ppm [7]: 0%
pest or weed control at 400 ppm [8]: 0%
pest or weed control at 400 µg/mL [9]: 0 to 19%
pest or weed control at 400 µg/mL [10]: 90 to 100%
pest or weed control at 400 ppm [11]: 100%
pest or weed control at 400 µg/mL [12]: 20 to 89%

N#Cc1ccc(Oc2ccc(CCOc3ncnc4ccccc34)cc2)nc1 [Compound 21]
mortality at 400 ppm [1]: 100%
pest or weed control at 400 µg/mL [2]: 90 to 100%
mortality at 400 ppm [3]: 60%
mortality at 400 ppm [4]: 0%
pest or weed control at 400 µg/mL [5]: 20 to 89%
mortality at 400 ppm [6]: 0%
mortality at 24 ppm [7]: 0%
pest or weed control at 400 ppm [8]: 0%
pest or weed control at 400 µg/mL [9]: 20 to 89%
pest or weed control at 400 µg/mL [10]: 90 to 100%
pest or weed control at 400 ppm [11]: 0%
pest or weed control at 400 µg/mL [12]: 20 to 89%

COc1cc(C(Cl)(Cl)Cl)cc(Oc2ccc(CCNc3ncnc4c(F)cccc34)cc2)n1 [Compound 35]
mortality at 50 ppm [1]: 0%
mortality at 400 ppm [1]: 0%
pest or weed control at 400 µg/mL [2]: 90 to 100%
mortality at 50 ppm [3]: 0%
mortality at 400 ppm [3]: 80%
mortality at 400 ppm [4]: 0%
pest or weed control at 400 µg/mL [5]: 0 to 19%
mortality at 50 ppm [6]: 0%
mortality at 400 ppm [6]: 0%
mortality at 24 ppm [7]: 0%
pest or weed control at 50 ppm [8]: 100%
pest or weed control at 400 ppm [8]: 100%
pest or weed control at 400 µg/mL [9]: 0 to 19%
pest or weed control at 400 µg/mL [10]: 0 to 19%
pest or weed control at 50 ppm [11]: 0%
pest or weed control at 400 ppm [11]: 80%
pest or weed control at 400 µg/mL [12]: 0 to 19%
